The nature of data set [1]: Cytotoxicity against V79 chinese hamster lung cells was determined via MTT assay after 24 hr. It counts as cell-based, Cricetulus griseus. For orientation: Formazan colour is commonly taken as a measure of viable cells.
Data set [2] is described as follows: Cytotoxicity against V79 chinese hamster lung cells was determined via MTT assay after 72 hr. It counts as cell-based, Cricetulus griseus.
The nature of data set [3]: Ability to inhibit the growth of ovarian cell line 2008. Format: cell-based, Homo sapiens.
Data set [4] in a line: Ability to inhibit the growth of human breast line MCF-7.
Data set [5] can be described thus: […] lethal dose in CF1 mice bearing fluid Ehrlich Ascites tumor at a dose of 75-100 mg/kg. The note with it: mouse, in vivo. It counts as ADME, organism-based.

pIC50: −log10 of the molar value.

For orientation: pIC50 means the IC50 on a negative log10 scale, so that one unit is a factor of ten. High values mean a low IC50, low ones a high IC50. A word on the LD50: it is the dose at which mortality reaches 50%. A high value points to a less toxic substance.

On to MOLYBDOCENE DICHLORIDE, for which the pIC50 was 3.09 in data set [1], 3.46 in data set [2], 3.15 in data set [3] and 3.21 in data set [4]. This sequence also yielded an LD50 in data set [5] of 175 mg/kg.

These data come from ChEMBL document CHEMBL1142737, “Organometallic anticancer agents: cellular uptake and cytotoxicity studies on thiol derivatives of the antitumor agent molybdocene dichloride” (J Med Chem, 2005).
